Assay results as given in ChEMBL document CHEMBL5465560, “Selectivity Literature for EUbOPEN Chemogenomic Library” (2024).
One block for each compound: values may come before it.

Tests used:
[1] = target: Vascular endothelial growth factor receptor 1 (Homo sapiens) (UniProt P17948); test: Selectivity interaction (Ambit KINOMEscan and KiNATiv profiling in Jurkat cells) EUB0000090b FLT1; type: cell-based; settings: at 1 µM
[2] = target: Activin receptor type-2B (Homo sapiens) (UniProt Q13705); test: Selectivity interaction (Kinase panel (Invitrogen)) EUB0000639a ACVR2B; settings: at 200 nM
[3] = target: Protein kinase C gamma type (Homo sapiens) (UniProt P05129); test: Selectivity interaction (Kinase panel (Invitrogen)) EUB0000639a PRKCG; settings: at 200 nM
[4] = target: MAP kinase-interacting serine/threonine-protein kinase 1 (Homo sapiens) (UniProt Q9BUB5); test: Selectivity interaction (Kinase panel (Z-LYTE Assay)) EUB0001632a MKNK1; settings: at 10 µM
[5] = target: T1, Mitogen-activated protein kinase kinase kinase 7 (Homo sapiens) (UniProt O43318); test: Selectivity interaction (KinomeScan (DiscoverX)) EUB0000695a MAP3K7; settings: at 100 nM
T1 sequence (whole entry): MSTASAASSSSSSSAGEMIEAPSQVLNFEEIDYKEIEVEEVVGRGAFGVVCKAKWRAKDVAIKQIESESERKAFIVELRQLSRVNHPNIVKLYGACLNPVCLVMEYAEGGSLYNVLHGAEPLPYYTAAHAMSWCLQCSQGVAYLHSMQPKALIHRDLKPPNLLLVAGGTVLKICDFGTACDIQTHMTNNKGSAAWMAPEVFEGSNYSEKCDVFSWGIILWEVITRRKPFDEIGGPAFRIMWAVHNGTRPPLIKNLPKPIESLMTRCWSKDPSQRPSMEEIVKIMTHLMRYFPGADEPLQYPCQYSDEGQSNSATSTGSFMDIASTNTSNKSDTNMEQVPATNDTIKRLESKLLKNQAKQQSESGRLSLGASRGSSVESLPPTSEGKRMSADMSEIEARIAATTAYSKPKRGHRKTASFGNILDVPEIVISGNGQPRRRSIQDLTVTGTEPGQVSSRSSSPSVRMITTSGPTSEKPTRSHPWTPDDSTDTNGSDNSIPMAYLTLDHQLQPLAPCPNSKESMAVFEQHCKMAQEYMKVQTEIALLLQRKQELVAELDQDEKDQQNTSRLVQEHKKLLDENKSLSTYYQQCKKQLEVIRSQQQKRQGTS

[6] = target: Serine/threonine-protein kinase PAK 3 (Homo sapiens) (UniProt O75914); test: Selectivity interaction (KinomeScan (DiscoverX)) EUB0000695a PAK3; settings: at 100 nM
[7] = target: T2, Mitogen-activated protein kinase kinase kinase 3 (Homo sapiens) (UniProt Q99759); test: Selectivity interaction (KinomeScan (DiscoverX)) EUB0001079a MAP3K3; settings: at 1 µM
T2 sequence (whole entry): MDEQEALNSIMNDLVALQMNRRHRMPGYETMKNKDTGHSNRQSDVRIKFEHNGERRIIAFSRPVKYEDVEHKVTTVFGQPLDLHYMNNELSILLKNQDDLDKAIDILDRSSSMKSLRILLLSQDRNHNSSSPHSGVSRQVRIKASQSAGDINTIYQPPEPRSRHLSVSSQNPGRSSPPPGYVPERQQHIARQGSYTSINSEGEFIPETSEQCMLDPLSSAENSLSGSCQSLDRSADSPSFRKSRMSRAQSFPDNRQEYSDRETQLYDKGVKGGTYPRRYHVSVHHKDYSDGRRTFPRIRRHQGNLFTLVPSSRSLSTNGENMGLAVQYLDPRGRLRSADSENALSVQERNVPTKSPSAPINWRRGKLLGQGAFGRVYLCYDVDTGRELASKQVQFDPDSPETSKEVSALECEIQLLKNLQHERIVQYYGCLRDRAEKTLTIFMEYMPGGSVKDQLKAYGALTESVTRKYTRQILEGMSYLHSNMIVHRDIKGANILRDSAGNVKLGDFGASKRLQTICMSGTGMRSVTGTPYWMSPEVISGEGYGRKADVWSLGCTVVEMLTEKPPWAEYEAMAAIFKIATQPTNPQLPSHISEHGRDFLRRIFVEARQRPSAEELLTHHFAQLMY

[8] = target: T3, Receptor-interacting serine/threonine-protein kinase 4 (Homo sapiens) (UniProt P57078); test: Selectivity interaction (KinomeScan (DiscoverX)) EUB0000655a RIPK4; settings: at 10 µM
T3 sequence (whole entry): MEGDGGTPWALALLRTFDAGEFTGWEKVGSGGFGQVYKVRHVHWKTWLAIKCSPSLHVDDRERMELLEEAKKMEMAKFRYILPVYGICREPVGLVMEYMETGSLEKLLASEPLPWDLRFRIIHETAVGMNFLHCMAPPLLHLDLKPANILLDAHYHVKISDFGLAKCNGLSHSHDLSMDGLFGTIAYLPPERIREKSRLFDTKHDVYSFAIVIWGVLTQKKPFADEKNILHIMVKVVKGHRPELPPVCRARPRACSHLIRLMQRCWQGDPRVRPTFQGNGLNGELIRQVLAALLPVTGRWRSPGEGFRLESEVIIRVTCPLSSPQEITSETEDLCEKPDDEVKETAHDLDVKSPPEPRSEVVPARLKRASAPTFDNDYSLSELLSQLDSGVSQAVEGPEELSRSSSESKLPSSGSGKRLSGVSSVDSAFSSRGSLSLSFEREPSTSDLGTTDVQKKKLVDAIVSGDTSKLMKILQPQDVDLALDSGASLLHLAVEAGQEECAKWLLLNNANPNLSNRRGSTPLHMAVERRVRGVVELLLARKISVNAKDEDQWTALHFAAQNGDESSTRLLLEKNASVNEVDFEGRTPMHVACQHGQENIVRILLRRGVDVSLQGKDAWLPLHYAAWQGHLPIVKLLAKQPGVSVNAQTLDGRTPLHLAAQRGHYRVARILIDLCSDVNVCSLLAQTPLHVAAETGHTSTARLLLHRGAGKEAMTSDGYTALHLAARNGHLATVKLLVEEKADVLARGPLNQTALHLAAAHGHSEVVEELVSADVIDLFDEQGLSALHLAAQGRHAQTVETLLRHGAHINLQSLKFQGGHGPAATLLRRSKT

[9] = target: T4, Serine/threonine-protein kinase 17B (Homo sapiens) (UniProt O94768); test: Selectivity interaction (KinomeScan (DiscoverX)) EUB0000607a STK17B; settings: at 10 µM
T4 sequence (whole entry): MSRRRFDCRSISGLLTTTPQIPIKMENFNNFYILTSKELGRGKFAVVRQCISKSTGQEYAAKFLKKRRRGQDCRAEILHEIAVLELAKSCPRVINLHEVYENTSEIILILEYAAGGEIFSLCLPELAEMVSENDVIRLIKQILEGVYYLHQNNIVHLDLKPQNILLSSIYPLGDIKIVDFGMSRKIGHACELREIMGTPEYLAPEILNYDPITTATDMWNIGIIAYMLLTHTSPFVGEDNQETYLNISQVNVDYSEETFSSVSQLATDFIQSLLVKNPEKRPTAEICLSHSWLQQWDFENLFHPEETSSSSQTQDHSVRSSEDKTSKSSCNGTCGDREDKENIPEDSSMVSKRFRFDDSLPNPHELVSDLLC

Chain of Vascular endothelial growth factor receptor 1 (Homo sapiens) (P17948 whole entry): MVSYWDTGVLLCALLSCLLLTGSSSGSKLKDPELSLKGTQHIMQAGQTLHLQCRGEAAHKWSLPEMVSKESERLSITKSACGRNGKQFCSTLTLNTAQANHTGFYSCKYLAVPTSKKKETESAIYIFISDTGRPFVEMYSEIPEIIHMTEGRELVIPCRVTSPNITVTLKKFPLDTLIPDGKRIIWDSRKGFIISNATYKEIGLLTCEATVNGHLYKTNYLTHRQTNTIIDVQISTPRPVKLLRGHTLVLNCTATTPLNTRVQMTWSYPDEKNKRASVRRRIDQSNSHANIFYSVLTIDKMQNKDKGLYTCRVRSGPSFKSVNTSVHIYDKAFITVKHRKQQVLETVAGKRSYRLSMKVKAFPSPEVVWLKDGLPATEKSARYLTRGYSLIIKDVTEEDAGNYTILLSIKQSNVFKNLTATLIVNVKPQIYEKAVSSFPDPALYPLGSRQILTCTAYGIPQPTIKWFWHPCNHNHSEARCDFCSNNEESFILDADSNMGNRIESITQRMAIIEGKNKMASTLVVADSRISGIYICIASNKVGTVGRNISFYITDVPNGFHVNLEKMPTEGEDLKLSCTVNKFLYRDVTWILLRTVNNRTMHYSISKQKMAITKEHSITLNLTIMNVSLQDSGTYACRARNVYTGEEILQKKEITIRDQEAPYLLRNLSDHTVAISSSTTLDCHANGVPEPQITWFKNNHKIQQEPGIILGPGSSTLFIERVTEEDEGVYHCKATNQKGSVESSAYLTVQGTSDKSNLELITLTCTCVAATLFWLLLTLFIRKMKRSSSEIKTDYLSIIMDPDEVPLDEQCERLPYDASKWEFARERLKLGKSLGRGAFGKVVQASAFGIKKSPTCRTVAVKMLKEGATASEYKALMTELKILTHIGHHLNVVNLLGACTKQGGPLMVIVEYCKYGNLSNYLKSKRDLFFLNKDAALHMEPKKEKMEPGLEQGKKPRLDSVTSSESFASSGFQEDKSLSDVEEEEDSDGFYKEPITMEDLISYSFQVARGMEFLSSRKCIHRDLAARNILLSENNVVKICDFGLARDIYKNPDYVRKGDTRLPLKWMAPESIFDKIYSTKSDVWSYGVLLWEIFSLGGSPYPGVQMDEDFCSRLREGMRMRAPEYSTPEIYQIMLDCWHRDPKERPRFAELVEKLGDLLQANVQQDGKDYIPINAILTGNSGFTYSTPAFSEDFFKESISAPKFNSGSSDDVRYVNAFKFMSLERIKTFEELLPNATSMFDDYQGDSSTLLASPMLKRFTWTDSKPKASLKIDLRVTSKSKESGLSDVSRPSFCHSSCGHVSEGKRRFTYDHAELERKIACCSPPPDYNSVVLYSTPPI
Chain of MAP kinase-interacting serine/threonine-protein kinase 1 (Homo sapiens) (Q9BUB5 whole entry, looked up): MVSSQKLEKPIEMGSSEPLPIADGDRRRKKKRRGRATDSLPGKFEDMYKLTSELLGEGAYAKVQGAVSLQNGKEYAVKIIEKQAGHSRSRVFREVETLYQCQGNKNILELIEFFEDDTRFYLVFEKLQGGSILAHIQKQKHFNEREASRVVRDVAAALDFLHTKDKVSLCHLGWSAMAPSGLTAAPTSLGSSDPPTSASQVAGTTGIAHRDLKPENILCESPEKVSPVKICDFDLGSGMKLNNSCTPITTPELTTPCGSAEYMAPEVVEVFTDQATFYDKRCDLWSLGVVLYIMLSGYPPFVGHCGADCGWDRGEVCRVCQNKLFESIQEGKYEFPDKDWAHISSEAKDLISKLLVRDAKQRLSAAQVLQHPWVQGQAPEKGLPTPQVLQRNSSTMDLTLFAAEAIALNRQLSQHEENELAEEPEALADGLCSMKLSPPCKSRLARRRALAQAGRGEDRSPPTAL
Chain of Serine/threonine-protein kinase PAK 3 (Homo sapiens) (O75914 whole entry, looked up): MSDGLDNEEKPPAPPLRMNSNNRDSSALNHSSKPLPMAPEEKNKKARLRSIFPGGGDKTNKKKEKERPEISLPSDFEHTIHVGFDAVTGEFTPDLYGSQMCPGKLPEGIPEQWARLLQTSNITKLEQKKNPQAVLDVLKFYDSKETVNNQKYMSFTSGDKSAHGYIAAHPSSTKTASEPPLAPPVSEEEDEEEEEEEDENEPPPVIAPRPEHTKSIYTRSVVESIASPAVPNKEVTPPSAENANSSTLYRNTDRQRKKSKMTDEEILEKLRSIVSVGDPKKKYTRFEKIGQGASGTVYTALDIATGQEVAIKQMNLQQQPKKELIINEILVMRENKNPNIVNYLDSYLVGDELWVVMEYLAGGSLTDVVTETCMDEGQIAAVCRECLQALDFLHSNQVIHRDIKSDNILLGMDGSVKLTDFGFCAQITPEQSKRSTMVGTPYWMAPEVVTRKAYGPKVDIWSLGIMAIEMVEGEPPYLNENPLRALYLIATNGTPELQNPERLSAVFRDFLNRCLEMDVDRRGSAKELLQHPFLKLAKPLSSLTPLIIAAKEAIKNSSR
Chain of Activin receptor type-2B (Homo sapiens) (Q13705 whole entry): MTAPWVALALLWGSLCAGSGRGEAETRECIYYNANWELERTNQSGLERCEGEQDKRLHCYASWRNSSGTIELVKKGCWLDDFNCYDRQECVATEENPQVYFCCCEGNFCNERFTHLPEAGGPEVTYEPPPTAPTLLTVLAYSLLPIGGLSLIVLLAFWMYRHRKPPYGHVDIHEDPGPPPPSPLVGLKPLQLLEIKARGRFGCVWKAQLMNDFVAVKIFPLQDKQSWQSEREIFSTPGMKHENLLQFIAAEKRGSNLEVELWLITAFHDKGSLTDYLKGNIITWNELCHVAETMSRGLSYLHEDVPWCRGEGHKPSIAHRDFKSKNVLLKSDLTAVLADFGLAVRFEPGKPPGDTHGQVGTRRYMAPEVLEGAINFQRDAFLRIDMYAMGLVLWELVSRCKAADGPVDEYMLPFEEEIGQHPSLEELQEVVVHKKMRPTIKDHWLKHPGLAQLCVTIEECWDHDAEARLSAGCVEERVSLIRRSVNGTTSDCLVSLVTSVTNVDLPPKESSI

SMILES: CN(C)C/C=C/C(=O)Nc1ccc(C(=O)N2CCCC(Nc3ncc(Cl)c(-c4c[nH]c5ccccc45)n3)C2)cc1 (centres undefined)
- % of control [1]: 85%

- % of inhibition [2]: 5.32%
- % of inhibition [3]: 12.1%
SMILES: CC[C@@H]1[C@H](F)C(=O)N[C@@H]1COc1nccc2cc(C(N)=O)c(OC)cc12 [ZIMLOVISERTIB]

- % of control [4]: 2.99%
SMILES: Cn1cc(-n2cnc3c(NCc4nc5cc(Cl)c(Cl)cc5[nH]4)nc(N4CCOCC4)nc32)cn1

SMILES: Cc1cc(F)c(C(=O)Nc2cccc(-c3nncn3C(C)C)n2)cc1-n1cnc(C2CC2)c1
- % of control [5]: 81%
- % of control [6]: 89%

SMILES: Nc1cnc(N2CCc3cc(S(=O)(=O)Nc4c(F)cc(Cl)cc4F)cc(N4CCCC4=O)c32)nc1 [TP-020n]
- % of control [7]: 97%

SMILES: CN(C)CCOc1ccc(-c2nc(-c3ccncc3)c(-c3ccc4c(c3)CC/C4=N\O)[nH]2)cc1
- % of control [8]: 100%

SMILES: CNC(=O)Nc1ccc(-c2nc(N3CC4CCC(C3)O4)c3cnn(C4CCC5(CC4)OCCO5)c3n2)cc1
- % of control [9]: 100%
